Read-outs that look alike come from different tables or passages of the source.
Legend:
prions [1] = details: cited from earlier work; for effect on prions: alcohols alone
[2] = tested on: 263K strain of scrapie agent; assay type: in vivo, Syrian gold hamsters; details: for inactivation factor: at 80° C.; for Mean incubation period ± SE: diseased animals only; for No. infected/No. injected: intracerebral inoculation
prions [3] = details: cited from earlier work

For `CCCO` [1-propanol], the effect on prions (prions [1]) is given as “do not have an effect on prions”.

For `CC(C)O` [2-propanol], the effect on prions (prions [1]) is given as “do not have an effect on prions”.

In the case of `O` [100% water, water], the inactivation factor [2] was “about 10”, the “Infectivity titre ± SE” value ([2]; heat treatment 80° C./20 min.) was 7.2 ± 0.7 log ID50 per sample and the “Mean incubation period ± SE” value ([2]; heat treatment 80° C./20 min.) was 78 ± 4 days. For the same molecule, the “No. infected/No. injected” value ([2]; heat treatment 80° C./20 min.) was 5/5, the “Infectivity titre ± SE” value ([2]; heat treatment 90° C./20 min.) was 6.2 ± 0.2 log ID50 per sample and the “Mean incubation period ± SE” value ([2]; heat treatment 90° C./20 min.) was 85 ± 1 days. For the same molecule, the “No. infected/No. injected” value ([2]; heat treatment 90° C./20 min.) was 5/5, the “Infectivity titre ± SE” value ([2]; heat treatment 100° C./20 min.) was 5.0 ± 0.1 log ID50 per sample and the “Mean incubation period ± SE” value ([2]; heat treatment 100° C./20 min.) was 97 ± 1 days. For the same molecule, the “No. infected/No. injected” value ([2]; heat treatment 100° C./20 min.) was 5/5.

For `CCCCCCCCCCCCOS(=O)(=O)[O-].[Na+]` [SDS, Sodium dodecylsulfate], the “residual infectivity after treatment” value (prions [1]; heated in SDS solution (3% or greater; 0.10 M) for at least ten minutes, without autoclaving) is given as “Some residual infectivity remains”.

In the case of `CCO` [ethanol], the effect on prions (prions [1]) is listed as “do not have an effect on prions”.

With `OCC(O)CO` [glycerol] the inactivation factor [2] was < 10.

For `Cl.N=C(N)N` [guanidinium hydrochloride], the “conversion of prions into an irregular coiled structure” value (prions [3]; 6 N guanidinium hydrochloride (573 g/l)) is listed as “complete conversion”.

In the case of `NC(N)=O` [urea], the “conversion of prions into an irregular coiled structure” value (prions [3]; 8 N urea (480 g/l)) is listed as “complete conversion”.

In the case of guanidinium isothiocyanate, the prion inactivation (prions [1]; concentration of 3 M, immersion times longer than 1 hour) is listed as “inactivates prions”, the “illness of experimental animals after intracerebral inoculation” value (prions [1]; concentration of 4 M, at least 15 minutes residence time) is listed as “no experimental animal in various experiments is reported to become ill” and the denaturing effect (prions [3]; 1.5 N solution (177 g/l)) is listed as “partially denaturing effect”.
